In PubChem BioAssay (NCI) one finds GI50 and TGI data, which are given here for 7 compounds.

Among the test systems are NCI-H226 lung; CCRF-CEM leukemia; SF-295 CNS; NCI/ADR-RES ovarian; HCT-15 colon; COLO 205 colon; BT-549 breast; UACC-62 melanoma; OVCAR-4 ovarian; HCT-116 colon.
Holding throughout (experiment): NCI tumour cell line growth inhibition, 48 h

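Each compound was tested at five concentrations against cells in 96-well plates for 48 hours. GI50 is the concentration that inhibits growth by half. At the TGI there is no net growth.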

For `O=C(CSc1nc2ccc([N+](=O)[O-])cc2[nH]1)Nc1ccc(F)c(Cl)c1`, the GI50 is 2.15 µM in the assay on NCI-H226 lung; 2.75 µM in the assay with CCRF-CEM leukemia; 1.81 µM in the assay on SF-295 CNS; 2.31 µM in the assay with NCI/ADR-RES ovarian; 2.84 µM with HCT-15 colon; 1.6 µM in the assay on COLO 205 colon. The GI50 in the assay on BT-549 breast was 2.44 µM; in the assay on UACC-62 melanoma it was 1.63 µM; in the assay on OVCAR-4 ovarian it was 1.99 µM; with HCT-116 colon it was 2.42 µM. Besides, the TGI with NCI-H226 lung is 9.57 µM; in the assay on CCRF-CEM leukemia, > 45.7 µM; in the assay with SF-295 CNS it was 5.5 µM; in the assay with NCI/ADR-RES ovarian, 8.23 µM; with HCT-15 colon it was 13 µM; with COLO 205 colon it was 3.3 µM. Also, the TGI in the assay with BT-549 breast is 9.34 µM; in the assay with UACC-62 melanoma, 10.5 µM; in the assay with OVCAR-4 ovarian, 17.8 µM; in the assay with HCT-116 colon, 10.6 µM.

For `C=C1C(=O)O[C@H]2[C@H]1CC/C(CNC(=O)c1c[nH]c3ccc(F)cc13)=C\CC[C@@]1(C)O[C@@H]21`, the GI50 in the assay with NCI-H226 lung was 13.9 µM; in the assay on CCRF-CEM leukemia, 0.359 µM; in the assay on SF-295 CNS, 3.71 µM; with NCI/ADR-RES ovarian it was 4.13 µM; in the assay with HCT-15 colon, 0.732 µM; with COLO 205 colon, 0.583 µM. Besides, the GI50 in the assay with BT-549 breast was 1.19 µM; in the assay with UACC-62 melanoma, 1.27 µM; in the assay with OVCAR-4 ovarian, 3.17 µM; with HCT-116 colon, 0.632 µM. The TGI in the assay on NCI-H226 lung was determined as 38.6 µM; in the assay on CCRF-CEM leukemia, 1.83 µM; in the assay with SF-295 CNS, 17 µM; with NCI/ADR-RES ovarian, 19.3 µM; with HCT-15 colon it was 2.21 µM; in the assay on COLO 205 colon it was 2.14 µM. The TGI with BT-549 breast was 2.7 µM; with UACC-62 melanoma, 3.03 µM; in the assay on OVCAR-4 ovarian, 15.2 µM; in the assay on HCT-116 colon it was 1.98 µM.

Regarding `Cc1nn(-c2ccc(S(=O)(=O)[O-])cc2)c([O-])c1N=[N+](C)c1ccc(-c2ccc(N=Nc3ccc4c(S(=O)(=O)[O-])cc(S(=O)(=O)[O-])c(N)c4c3[O-])c([O-])c2)cc1[O-].[Cu+2].[Cu+2].[Na+]`, the GI50 with NCI-H226 lung, in the assay on CCRF-CEM leukemia, in the assay on SF-295 CNS, in the assay with NCI/ADR-RES ovarian, with HCT-15 colon and in the assay on COLO 205 colon was > 100 µM each time. The GI50 with BT-549 breast, with UACC-62 melanoma, in the assay on OVCAR-4 ovarian and with HCT-116 colon was > 100 µM each time. Besides, the TGI in the assay with NCI-H226 lung, with CCRF-CEM leukemia, in the assay on SF-295 CNS, in the assay on NCI/ADR-RES ovarian, with HCT-15 colon and in the assay with COLO 205 colon was > 100 µM throughout. For the same compound, the TGI in the assay on BT-549 breast, in the assay with UACC-62 melanoma, in the assay on OVCAR-4 ovarian and with HCT-116 colon was > 100 µM throughout.

As for `C[C@@H]1CC[C@@H]2[C@@H]1[C@H](OC(=O)/C=C/c1ccccc1)[C@]1(c3ccccc3)C[C@@H](OC(=O)CO)[C@@]2(C)O1`, the GI50 was 13.2 µM in the assay on NCI-H226 lung; 20.8 µM in the assay with CCRF-CEM leukemia; 12.8 µM in the assay with SF-295 CNS; 4.41 µM in the assay with NCI/ADR-RES ovarian; 12.7 µM in the assay on HCT-15 colon; 16.1 µM in the assay on COLO 205 colon. Besides, the GI50 with BT-549 breast was 0.406 µM; in the assay with UACC-62 melanoma it was 14.5 µM; in the assay on OVCAR-4 ovarian, 12.3 µM; in the assay on HCT-116 colon, 12.7 µM. In addition, the TGI in the assay with NCI-H226 lung was 29 µM; in the assay with CCRF-CEM leukemia it was 84.2 µM; in the assay with SF-295 CNS, 32.3 µM; with NCI/ADR-RES ovarian, 24.9 µM; in the assay on HCT-15 colon, 32.7 µM; in the assay on COLO 205 colon it was 32.7 µM. Also, the TGI in the assay on BT-549 breast amounted to 17.7 µM; in the assay on UACC-62 melanoma, 33.3 µM; in the assay on OVCAR-4 ovarian it was 27.3 µM; in the assay on HCT-116 colon, 27.6 µM.

On to `Oc1ccccc1/C=N/Nc1ccc2ccccc2n1`, for which the GI50 was 4.6 µM with NCI-H226 lung; 0.862 µM in the assay with CCRF-CEM leukemia; 4.44 µM with SF-295 CNS; 1.95 µM with NCI/ADR-RES ovarian; 0.838 µM in the assay on HCT-15 colon; 3.66 µM in the assay with COLO 205 colon. The GI50 in the assay on BT-549 breast was 8.08 µM; in the assay with UACC-62 melanoma, 3.17 µM; with OVCAR-4 ovarian, 2.42 µM; in the assay with HCT-116 colon, 4.51 µM. In addition, the TGI with NCI-H226 lung, in the assay on CCRF-CEM leukemia, in the assay with SF-295 CNS, with NCI/ADR-RES ovarian, in the assay with HCT-15 colon and in the assay on COLO 205 colon was > 100 µM throughout. Further, the TGI in the assay on BT-549 breast is > 100 µM; with UACC-62 melanoma it was > 100 µM; with OVCAR-4 ovarian, 18.6 µM; in the assay with HCT-116 colon it was > 100 µM.

For the compound `O=C(CCN1CCN(c2cnc3ccccc3n2)CC1)c1csc2ccccc12`, the GI50 with NCI-H226 lung is 35.7 µM; in the assay with CCRF-CEM leukemia it was 19.2 µM; in the assay on SF-295 CNS, 36.1 µM; with NCI/ADR-RES ovarian it was > 100 µM; in the assay on HCT-15 colon, 62.6 µM; in the assay on COLO 205 colon, 24.9 µM. Further, the GI50 was 14.9 µM in the assay with BT-549 breast, 49.5 µM in the assay on UACC-62 melanoma, 28.2 µM in the assay on OVCAR-4 ovarian and 36.2 µM in the assay with HCT-116 colon. Moreover, the TGI was > 100 µM with NCI-H226 lung; > 100 µM in the assay with CCRF-CEM leukemia; > 100 µM in the assay with SF-295 CNS; > 100 µM in the assay with NCI/ADR-RES ovarian; > 100 µM with HCT-15 colon; 59 µM with COLO 205 colon. In addition, the TGI in the assay on BT-549 breast is 30 µM; with UACC-62 melanoma it was > 100 µM; with OVCAR-4 ovarian, 92.5 µM; in the assay on HCT-116 colon, > 100 µM.

Turning to `O=C1/C(=C/c2ccc(F)cc2)CCOc2ccc([N+](=O)[O-])cc21`, the GI50 in the assay on NCI-H226 lung was 20.1 µM; in the assay on CCRF-CEM leukemia, 0.761 µM; with SF-295 CNS, 3.08 µM; in the assay on NCI/ADR-RES ovarian, 2.12 µM; in the assay with HCT-15 colon it was 41.6 µM; in the assay on COLO 205 colon it was 18.8 µM. The GI50 was 3 µM in the assay on BT-549 breast, 2.19 µM in the assay with UACC-62 melanoma, 16.7 µM in the assay on OVCAR-4 ovarian and 1.5 µM in the assay with HCT-116 colon. For the same compound, the TGI is 39.6 µM in the assay with NCI-H226 lung; 3.47 µM in the assay on CCRF-CEM leukemia; 9.23 µM in the assay on SF-295 CNS; 4.99 µM with NCI/ADR-RES ovarian; > 100 µM with HCT-15 colon; 35 µM in the assay with COLO 205 colon. Also, the TGI in the assay with BT-549 breast is 7.82 µM; in the assay on UACC-62 melanoma, 4.01 µM; with OVCAR-4 ovarian it was 36.5 µM; in the assay with HCT-116 colon it was 3.01 µM.
